Experimental data published in patent US7741327B2 (Hoffmann-La Roche Inc., priority 2008, dated 2010).

Biological target: T1, Recombinant human liver GK1 (GST-GK) (Homo sapiens, UniProt P35557)
T1 construct: made in house; host or cells: E. coli
T1 sequence (P35557 1-466 isoform P35557-2): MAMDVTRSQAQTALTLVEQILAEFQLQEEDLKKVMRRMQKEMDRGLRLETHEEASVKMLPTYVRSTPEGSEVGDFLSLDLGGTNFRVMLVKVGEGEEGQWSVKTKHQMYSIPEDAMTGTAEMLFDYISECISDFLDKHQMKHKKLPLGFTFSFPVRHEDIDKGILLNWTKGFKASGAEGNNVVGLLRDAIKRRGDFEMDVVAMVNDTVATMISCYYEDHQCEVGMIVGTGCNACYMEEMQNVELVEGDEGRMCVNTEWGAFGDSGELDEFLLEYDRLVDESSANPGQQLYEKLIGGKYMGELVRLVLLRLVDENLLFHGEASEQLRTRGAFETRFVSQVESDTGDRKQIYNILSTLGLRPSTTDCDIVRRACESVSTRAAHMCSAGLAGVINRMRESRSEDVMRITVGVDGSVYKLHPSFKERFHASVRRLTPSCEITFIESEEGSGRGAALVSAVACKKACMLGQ
Assay: In vitro glucokinase activity (G6PDH-coupled NADH assay)
Format: biochemical
Conditions: 30° C., 5 mM D-glucose, 10% DMSO
Method in brief: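 Activation measured as the rate of OD340 rise from G6PDH-coupled NADH production, relative to 10% DMSO control, reported as SC1.5 (concentration for 50% activity increase). Conditions: 30° C, pH 7.1 Hepes, 5 mM glucose, 1 mM ATP, purified recombinant GST-human GK1, compound preincubated 10 min before enzyme addition.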

Compound | SC1.5 (concentration of activator that produced a 50% increase in the activity of GK) [µM]
CC(C)(O)Cn1ccc(NC(=O)[C@H](CC2CCCCC2)N2CC(Oc3c(F)ccc(Cl)c3F)=CC2=O)n1 [Example 72, (S)-2-[4-(3-Chloro-2,6-difluoro-phenoxy)-2-oxo-2,5-dihydro-pyrrol-1-yl]-3-cyclohexyl-N-[1-(2-hydroxy-2-methyl-propyl)-1H-pyrazol-3-yl]-propionamide] | 0.024
CCOc1ccc(F)c(OC2=CC(=O)N([C@@H](CC(C)C)C(=O)Nc3ccn(CC(C)(C)O)n3)C2)c1F [Example 260, (S)-2-[4-(3-Ethoxy-2,6-difluoro-phenoxy)-2-oxo-2,5-dihydro-pyrrol-1-yl]-4-methyl-pentanoic acid [1-(2-hydroxy-2-methyl-propyl)-1H-pyrazol-3-yl]-amide] | 0.024
CC(C)C[C@@H](C(=O)Nc1ccn(CC(C)(C)O)n1)N1CC(Oc2cccc(O)c2F)=CC1=O [Example 126, (S)-2-[4-(2-Fluoro-3-hydroxy-phenoxy)-2-oxo-2,5-dihydro-pyrrol-1-yl]-4-methyl-pentanoic acid [1-(2-hydroxy-2-methyl-propyl)-1H-pyrazol-3-yl]-amide] | 0.182
CC(C)C[C@@H](C(=O)Nc1ccn(C[C@@H]2CNC(=O)O2)n1)N1CC(Oc2ccccc2Cl)=CC1=O [Example 172, (S)-2-[4-(2-chloro-phenoxy)-2-oxo-2,5-dihydro-pyrrol-1-yl]-4-methyl-pentanoic acid [1-((S)-2-oxo-oxazolidin-5-ylmethyl)-1H-pyrazol-3-yl]-amide] | 0.628
COc1cccc(OC2=CC(=O)N([C@@H](CC3CCCC3)C(=O)Nc3ccn(CC(C)(C)O)n3)C2)c1Cl [Example 54, (S)-2-[4-(2-chloro-3-methoxy-phenoxy)-2-oxo-2,5-dihydro-pyrrol-1-yl]-3-cyclopentyl-N-[1-(2-hydroxy-2-methyl-propyl)-1H-pyrazol-3-yl]-propionamide] | 0.008
CC[C@H](C)C[C@@H](C(=O)Nc1ccn(C[C@@H](O)CO)n1)N1CC(Oc2ccccc2Cl)=CC1=O (single isomer, unassigned) [Example 251] | 0.056
CC(F)(F)C[C@@H](C(=O)Nc1ccn(C[C@@H](O)CO)n1)N1CC(Oc2ccccc2Cl)=CC1=O [Example 218, (S)-2-[4-(2-Chloro-phenoxy)-2-oxo-2,5-dihydro-pyrrol-1-yl]-4,4-difluoro-pentanoic acid [1-((R)-2,3-dihydroxy-propyl)-1H-pyrazol-3-yl]-amide] | 4.538
O=C(Nc1ccn(C[C@@H](O)CO)n1)C(CCC(F)(F)F)N1CC(Oc2ccccc2Cl)=CC1=O (stereo partly drawn) [Example 220, 2-[4-(2-Chloro-phenoxy)-2-oxo-2,5-dihydro-pyrrol-1-yl]-5,5,5-trifluoro-pentanoic acid [1-((R)-2,3-dihydroxy-propyl)-1H-pyrazol-3-yl]-amide] | 1.8
Cc1nsc(NC(=O)[C@H](CC(C)C)N2CC(Oc3ccccc3Cl)=CC2=O)n1 [Example 107, (S)-2-[4-(2-Chloro-phenoxy)-2-oxo-2,5-dihydro-pyrrol-1-yl]-4-methyl-pentanoic acid (3-methyl-[1,2,4]thiadiazol-5-yl)-amide] | > 30
O=C(Nc1ccn(C[C@@H](O)CO)n1)C(CC1(F)CCCC1)N1CC(Oc2c(F)cccc2F)=CC1=O (stereo partly drawn) [Example 159, 2-[4-(2,6-Difluoro-phenoxy)-2-oxo-2,5-dihydro-pyrrol-1-yl]-N-[1-((R)-2,3-dihydroxy-propyl)-1H-pyrazol-3-yl]-3-(1-fluoro-cyclopentyl)-propionamide] | 2.867
COC(=O)c1ccc(NC(=O)[C@H](CC2CCCC2)N2CC(OC)=CC2=O)nc1 [Example 10, 6-[(S)-3-Cyclopentyl-2-(4-methoxy-2-oxo-2,5-dihydro-pyrrol-1-yl)-propionylamino]-nicotinic acid methyl ester] | 1.855
CCCOC1=CC(=O)N([C@@H](CC2CCCCC2)C(=O)Nc2ccn(CC(C)(C)O)n2)C1 [Example 24, (S)-3-Cyclohexyl-N-[1-(2-hydroxy-2-methyl-propyl)-1H-pyrazol-3-yl]-2-(2-oxo-4-propoxy-2,5-dihydro-pyrrol-1-yl)-propionamide] | 5.251
COC1=CC(=O)N([C@@H](CC2CCCC2)C(=O)Nc2ccc(C(=O)O)cn2)C1 [Example 11, 6-[(S)-3-Cyclopentyl-2-(4-methoxy-2-oxo-2,5-dihydro-pyrrol-1-yl)-propionylamino]-nicotinic acid] | 3.99
CC(C)C[C@@H](C(=O)Nc1cnccn1)N1CC(Oc2cccc(C(O)CO)c2F)=CC1=O (stereo partly drawn) [Example 155, (S)-2-{4-[3-(1,2-Dihydroxy-ethyl)-2-fluoro-phenoxy]-2-oxo-2,5-dihydro-pyrrol-1-yl}-4-methyl-pentanoic acid pyrazin-2-ylamide] | 1.717
CC(C)C[C@@H](C(=O)Nc1ccn(C[C@@H]2COC(C)(C)O2)n1)N1CC(Oc2cccc(CC(C)(C)O)c2)=CC1=O [Example 237, (S)-2-{4-[3-(2-Hydroxy-2-methyl-propyl)-phenoxy]-2-oxo-2,5-dihydro-pyrrol-1-yl}-4-methyl-pentanoic acid [1-((R)-2,2-dimethyl-[1,3]dioxolan-4-ylmethyl)-1H-pyrazol-3-yl]-amide] | 1.969
CC(C)(O)Cn1ccc(NC(=O)[C@H](CC2CCCCC2)N2CC(Oc3ccccc3C(C)(C)C)=CC2=O)n1 [Example 197, (S)-2-[4-(2-t-butyl-phenoxy)-2-oxo-2,5-dihydro-pyrrol-1-yl]-3-cyclohexyl-N-[1-(2-hydroxy-2-methyl-propyl)-1H-pyrazol-3-yl]-propionamide] | 0.892
Cc1ccc(OC2=CC(=O)N([C@@H](CC3CCCCC3)C(=O)Nc3ccn(CC(C)(C)O)n3)C2)cn1 [Example 212, (S)-3-cyclohexyl-N-[1-(2-hydroxy-2-methyl-propyl)-1H-pyrazol-3-yl]-2-[4-(6-methyl-pyridin-3-yloxy)-2-oxo-2,5-dihydro-pyrrol-1-yl]-propionamide] | 0.054
COc1ccccc1OC1=CC(=O)N(C(CC2CCOCC2)C(=O)Nc2ccn(CC(C)(C)O)n2)C1 (centres unmarked) [Example 34, N-[1-(2-hydroxy-2-methyl-propyl)-1H-pyrazol-3-yl]-2-[4-(2-methoxy-phenoxy)-2-oxo-2,5-dihydro-pyrrol-1-yl]-3-(tetrahydropyran-4-yl)-propionamide] | 0.217
CC(C)(C)CCC(C(=O)Nc1ccn(C[C@@H](O)CO)n1)N1CC(Oc2ccccc2Cl)=CC1=O (stereo partly drawn) [Example 227, 2-[4-(2-Chloro-phenoxy)-2-oxo-2,5-dihydro-pyrrol-1-yl]-5,5-dimethyl-hexanoic acid [1-((R)-2,3-dihydroxy-propyl)-1H-pyrazol-3-yl]amide] | 16.668

Same assay, conditions: at 30 μM test compound

Compound | fold act. @ 30 μM [fold]
Cc1nsc(NC(=O)[C@H](CC(C)C)N2CC(Oc3ccccc3Cl)=CC2=O)n1 [Example 107, (S)-2-[4-(2-Chloro-phenoxy)-2-oxo-2,5-dihydro-pyrrol-1-yl]-4-methyl-pentanoic acid (3-methyl-[1,2,4]thiadiazol-5-yl)-amide] | 1.4
